These results are taken from patent US5756521A, “Chroman-2-ylmethylamino derivatives” (American Home Products Corporation, priority 1997, dated 1998).

A word on the IC50: it is the concentration that inhibits the measured activity by half.

The target in test [1] is T1, dopamine autoreceptor (D2, 3H-quinpirole) (Rattus norvegicus, UniProt P61169).
T1 construct: homogenized rat striatal brain tissue; from tissue; host or cells: rat striatal brain tissue
Kind of test: Dopamine autoreceptor affinity, 3H-quinpirole binding in homogenized rat striatal brain tissue. Conditions: rat striatal brain tissue homogenate, read-out: IC50 (nM), D2, (Quin.). As to the method:
Affinity for the dopamine autoreceptor was established by a modification of the standard experimental test procedure of Seemen and Schaus, European Journal of Pharmacology 203: 105-109, 1991, wherein homogenized rat striatal brain tissue is incubated with ^3 H-quinpirole (Quin.) and various concentrations of test compound, filtered and washed and counted in a Betaplate scintillation counter.

The target of the next test is T2, dopamine D-2 receptor (Rattus norvegicus, UniProt P61169).
T2 construct: homogenized limbic brain tissue; from tissue
Kind of test: Dopamine D-2 receptor affinity, 3H-spiroperidol binding in homogenized limbic brain tissue. As to the method:
High affinity for the dopamine D-2 receptor was established by the standard experimental test procedure of Fields, et al., Brain Res., 136, 578 (1977) and Yamamura et al., eds., Neurotransmitter Receptor Binding, Raven Press, N.Y. (1978) wherein homogenized limbic brain tissue is incubated with ^3 H-spiroperidol (Spiper.) and various concentrations of test compound, filtered and washed and shaken with Hydrofluor scintillation cocktail (National Diagnostics) and counted in a Packard 460 CD scintillation counter.

T2 sequence (P61169 whole entry): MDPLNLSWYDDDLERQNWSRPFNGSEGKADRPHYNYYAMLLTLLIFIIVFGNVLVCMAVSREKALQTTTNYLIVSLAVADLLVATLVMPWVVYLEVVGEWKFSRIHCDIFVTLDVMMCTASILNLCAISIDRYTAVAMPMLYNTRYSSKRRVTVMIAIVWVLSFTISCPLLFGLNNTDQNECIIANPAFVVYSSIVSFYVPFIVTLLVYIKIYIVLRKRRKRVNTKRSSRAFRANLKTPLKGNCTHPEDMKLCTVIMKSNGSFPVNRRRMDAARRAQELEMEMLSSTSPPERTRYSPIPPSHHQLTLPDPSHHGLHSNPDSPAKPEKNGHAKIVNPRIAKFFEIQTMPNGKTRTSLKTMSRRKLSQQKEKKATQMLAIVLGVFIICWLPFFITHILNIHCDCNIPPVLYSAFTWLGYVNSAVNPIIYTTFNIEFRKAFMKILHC
T1 sequence (P61169 whole entry): as above

`Oc1ccc2c(c1)OC(CNCc1ccccn1)CC2` (stereo not drawn) [Example 1]: the IC50 was determined as 2.21 nM in test [1] and 1230 nM at dopamine D-2 receptor (3H-spiroperidol, limbic brain tissue homogenate, read-out: IC50 (nM), (Spiper.)). Besides, the ratio at dopamine D-2 receptor (ratio of IC50 (Spiper.) to IC50 (Quin.), LowAg/HighAg) is listed as 557.
